Measurements from paper PMC8459971, “Evaluation of the hepatotoxicity of the novel GPR40 (FFAR1) agonist CPL207280 in the rat and monkey” (PLoS ONE, 2021).
Values joined by “and” are separate entries in the source; they are usually repeats but may differ in a detail not shown here. Identical values can stand only once. “Also recorded” adds a separate entry of the source.

Columns and labels:
[1] = Stability in cryopreserved hepatocytes, monkey; format: in vitro ADME; settings: for Compound Remaining (% of 0 min): Hepatocyte Stability Monkey, single replicates
Experimental: (§1) The final incubation volume was 500 μL. Two control compounds (verapamil and donepezil) were included for each microsomal species, along with the appropriate vehicle control. The reactions were terminated by transferring 50 μL of incubate to 100 μL methanol containing an internal standard (metoprolol) at appropriate time points (0, 10, 20, 40, 60, and 120 min for the test compound and 0, 5, 10, 20, 40, and 60 min for the control compounds). The termination plates were centrifuged at 4000 x g at 4°C for 30 min to precipitate the protein. The supernatants were then collected for analysis, and LC-MS/MS was used for detection purposes. The system consisted of an Acquity™ Binary Solvent Manager, Acquity™ 4-position heated column manager, 2777 Ultra High Pressure Autosampler, and a Xevo-TQ MS triple quadrupole mass spectrometer (Waters Ltd., Herts, UK). This process was carried out twice.

[2] = Stability in cryopreserved hepatocytes, dog; format: in vitro ADME; settings: for Compound Remaining (% of 0 min): Hepatocyte Stability Dog, single replicates
Experimental: as §1

[3] = Repeat-dose study in healthy Wistar Han rats, safety (14 and 56 days); format: in vivo, rat
[4] = Repeat-dose study in healthy Cynomolgus monkeys, safety (14 and 56 days)
[5] = Repeat-dose study in monkeys, pharmacokinetics (14 and 56 days); settings: monkey; for AUC: exposure - AUC
[6] = Stability in cryopreserved hepatocytes, human; format: in vitro ADME; settings: for Compound Remaining (% of 0 min): Hepatocyte Stability Human, single replicates
Experimental: as §1

[7] = cryopreserved hepatocytes (suspension), Monkey (Cynomolgus) hepatocytes, mean n = 2
[8] = cryopreserved hepatocytes (suspension), Dog (Beagle) hepatocytes, mean n = 2
[9] = dose 50 mg/kg, Day 1, individual animals, 50 mg/kg
[10] = dose 50 mg/kg, Day 14, individual animals, 50 mg/kg
[11] = dose 100 mg/kg, Day 1, individual animals, 100 mg/kg
[12] = dose 100 mg/kg, Day 14, individual animals, 100 mg/kg
[13] = dose 150 mg/kg, Day 1, individual animals, 150 mg/kg
[14] = dose 150 mg/kg, Day 56, individual animals, 150 mg/kg
[15] = dose 200 mg/kg, Day 1, individual animals, 200 mg/kg
[16] = dose 200 mg/kg, Day 14, individual animals, 200 mg/kg
[17] = cryopreserved hepatocytes (suspension), Human hepatocytes, mean n = 2

## CC#C[C@@H](CC(=O)O)c1ccc(OCC(C)=C(C)C)cc1 [CPL207280]
[1]; 0 min
  Compound Remaining (% of 0 min): 100 % of 0 min
[1]; 10 min
  Compound Remaining (% of 0 min): 65.3 % of 0 min and 63.2 % of 0 min
[1]; 20 min
  Compound Remaining (% of 0 min): 38.4 % of 0 min and 39.7 % of 0 min
[1]; 40 min
  Compound Remaining (% of 0 min): 17.5 % of 0 min and 19.5 % of 0 min
[1]; 60 min
  Compound Remaining (% of 0 min): 8.86 % of 0 min and 11.4 % of 0 min
[1]; 120 min
  Compound Remaining (% of 0 min): 8.94 % of 0 min and 8.99 % of 0 min
[1]; [7]
  half-life at 3 μM: 17 min
  microsomal CLint at 3 μM: 81.4 µL/min/mg
[2]; 0 min
  Compound Remaining (% of 0 min): 100 % of 0 min
[2]; 10 min
  Compound Remaining (% of 0 min): 93.0 % of 0 min and 92.9 % of 0 min
[2]; 20 min
  Compound Remaining (% of 0 min): 83.6 % of 0 min and 74.9 % of 0 min
[2]; 40 min
  Compound Remaining (% of 0 min): 73.0 % of 0 min and 74.7 % of 0 min
[2]; 60 min
  Compound Remaining (% of 0 min): 61.1 % of 0 min and 62.8 % of 0 min
[2]; 120 min
  Compound Remaining (% of 0 min): 65.2 % of 0 min and 60.1 % of 0 min
[2]; [8]
  half-life at 3 μM: 180 min
  microsomal CLint at 3 μM: 7.76 µL/min/mg
[3]; both sexes, Wistar Han, rat, in vivo, oral, rats, 14-day study, read-out: maximum tolerated dose (MTD)
  MTD at 14 days: 600 mg/kg
[3]; rats, 1200 mg/kg group, 14-day study
  mortality: death of one subject occurred on day 7
[3]; rats, 1200 mg/kg, 14 days, fasted blood, significant increase from 34.2±8.5, in U/L (unit assumed)
  ALT: 60.0±8.0
[3]; rats, 1200 mg/kg, 14 days, fasted blood, significant increase from 86.3±30.2, in U/L (unit assumed)
  ALP: 136.1±55.3
[3]; rats, 14-day study, doses up to 600 mg/kg
  ALT, AST and ALP: no ALT, AST, and ALP elevation
[3]; rats, 14 days
  liver histopathology: no microscopic changes in the liver tissue
[3]; rats, 56 days
  liver histopathology: mild to moderate hypertrophy of centrilobular hepatocytes at doses ≥ 150 mg/kg/day; also recorded: minimal to mild centrilobular hepatocyte hypertrophy
[3]; rats, 56 days, 50, 150 and 500 mg/kg
  liver injury markers, TBA and T-BIL: none of the previously monitored markers nor TBA and T-BIL were altered
[3]; rats, 56 days, recovery period
  reversibility of hepatocyte hypertrophy / liver weight increase: reversible after 28 days
[3]; rats, all groups (300, 600, 1200 mg/kg/day), 14 days
  liver mass as a percentage of body weight: dose-dependent enlargement of the liver
[3]; summary comparison CPL207280 vs TAK-875 (TAK-875: ref 25), sign spans both columns
  Propensity to elevate liver enzyme damage markers: <
[3]; summary table
  Propensity to elevate bile acids and bilirubin in plasma: No
[4]; 50–250 mg/kg/day, 14 and 56 days
  liver safety parameters: No alteration of liver safety parameters
[4]; after the 14 and 56-day treatment
  hepatocyte hypertrophy and liver mass: neither hypertrophy nor increased liver mass was observed
[5]; both, Cynomolgus, plasma, po, 100 mg/kg, dose 100 mg/kg, Day 1, individual animals
  AUC: 334 µg·h/mL
[5]; both, Cynomolgus, plasma, po, 100 mg/kg, dose 100 mg/kg, Day 14, individual animals
  AUC: 552 µg·h/mL
[5]; both, cynomolgus, plasma, po, 50 mg/kg, Cmax, dose 50 mg/kg, Day 1, individual animals
  Cmax: 38.5 µg/mL
[5]; both, cynomolgus, plasma, po, 50 mg/kg, Cmax, dose 50 mg/kg, Day 14, individual animals
  Cmax: 59.8 µg/mL
[5]; both, cynomolgus, plasma, po, 200 mg/kg, dose 200 mg/kg, Day 1, individual animals
  AUC: 794 µg·h/mL
[5]; both, cynomolgus, plasma, po, 200 mg/kg, dose 200 mg/kg, Day 14, individual animals
  AUC: 919 µg·h/mL
[5]; both, plasma, po, 200 mg/kg, Cmax, dose 200 mg/kg, Day 1, individual animals
  Cmax: 258 µg/mL
[5]; [9]
  Cmax: 54.2432 µg/mL and 70.1198 µg/mL and 73.0824 µg/mL
  exposure - AUC: 85.565 µg·h/mL and 262.448 µg·h/mL and 140.708 µg·h/mL and 87.498 µg·h/mL and 100.461 µg·h/mL and 109.347 µg·h/mL and 254.256 µg·h/mL and 110.743 µg·h/mL and 146.423 µg·h/mL and 105.958 µg·h/mL and 142.73 µg·h/mL and 220.718 µg·h/mL
[5]; [10]
  Cmax: 77.3656 µg/mL and 85.376 µg/mL and 71.8017 µg/mL
  exposure - AUC: 101.909 µg·h/mL and 132.812 µg·h/mL and 431.268 µg·h/mL and 124.571 µg·h/mL
[5]; dose 50 mg/kg, Day 56, individual animals, 50 mg/kg
  exposure - AUC: 150.303 µg·h/mL and 89.075 µg·h/mL and 182.055 µg·h/mL and 206.125 µg·h/mL and 124.755 µg·h/mL and 213.673 µg·h/mL and 113.523 µg·h/mL and 83.328 µg·h/mL
[5]; [11]
  Cmax: 47.7304 µg/mL and 196.843 µg/mL and 120.978 µg/mL and 122.802 µg/mL
  exposure - AUC: 385.402 µg·h/mL and 219.918 µg·h/mL and 309.18 µg·h/mL
[5]; [12]
  Cmax: 59.7137 µg/mL and 97.7733 µg/mL and 114.927 µg/mL and 30.391 µg/mL
  exposure - AUC: 540.113 µg·h/mL and 349.314 µg·h/mL and 371.77 µg·h/mL
[5]; [13]
  Cmax: 174.84 µg/mL and 194.31 µg/mL and 41.31 µg/mL and 61.81 µg/mL and 148.23 µg/mL and 203.64 µg/mL and 215.41 µg/mL and 167.94 µg/mL
  exposure - AUC: 687.155 µg·h/mL and 716.453 µg·h/mL and 299.365 µg·h/mL and 303.408 µg·h/mL and 583.353 µg·h/mL and 708.01 µg·h/mL and 517.538 µg·h/mL and 598.748 µg·h/mL
[5]; [14]
  Cmax: 206.99 µg/mL and 230.13 µg/mL and 188.65 µg/mL and 99.77 µg/mL and 256.14 µg/mL and 172.69 µg/mL and 25.09 µg/mL and 47.76 µg/mL
  exposure - AUC: 476.098 µg·h/mL and 561.835 µg·h/mL and 462.75 µg·h/mL and 833.928 µg·h/mL and 555.34 µg·h/mL and 670.743 µg·h/mL and 435.418 µg·h/mL and 360.168 µg·h/mL
[5]; [15]
  Cmax: 146.587 µg/mL and 153.261 µg/mL and 191.742 µg/mL
  exposure - AUC: 842.687 µg·h/mL and 783.604 µg·h/mL and 691.713 µg·h/mL
[5]; [16]
  Cmax: 263.213 µg/mL and 90.4785 µg/mL and 181.854 µg/mL and 224.986 µg/mL
  exposure - AUC: 610.926 µg·h/mL and 654.718 µg·h/mL and 646.623 µg·h/mL
[5]; dose 250 mg/kg, Day 1, individual animals, 250 mg/kg
  exposure - AUC: 1583.82 µg·h/mL and 721.808 µg·h/mL and 793.135 µg·h/mL and 1183 µg·h/mL and 1366.178 µg·h/mL and 895.14 µg·h/mL and 850.363 µg·h/mL and 1425.683 µg·h/mL and 1258.01 µg·h/mL and 575.98 µg·h/mL and 469.06 µg·h/mL and 783 µg·h/mL
[5]; dose 250 mg/kg, Day 56, individual animals, 250 mg/kg
  exposure - AUC: 1170.11 µg·h/mL and 1015.218 µg·h/mL and 686.383 µg·h/mL and 1887.035 µg·h/mL and 975.73 µg·h/mL and 1235.128 µg·h/mL and 1213.253 µg·h/mL and 997.608 µg·h/mL and 1100.488 µg·h/mL and 1004.075 µg·h/mL and 831.145 µg·h/mL and 1255.683 µg·h/mL
[6]; 0 min
  Compound Remaining (% of 0 min): 100 % of 0 min
[6]; 10 min
  Compound Remaining (% of 0 min): 73.2 % of 0 min and 74.0 % of 0 min
[6]; 20 min
  Compound Remaining (% of 0 min): 42.2 % of 0 min and 46.1 % of 0 min
[6]; 40 min
  Compound Remaining (% of 0 min): 20.6 % of 0 min and 16.0 % of 0 min
[6]; 60 min
  Compound Remaining (% of 0 min): 10.5 % of 0 min and 7.67 % of 0 min
[6]; 120 min
  Compound Remaining (% of 0 min): 3.07 % of 0 min and 1.62 % of 0 min
[6]; [17]
  half-life at 3 μM: 17 min
  microsomal CLint at 3 μM: 82.8 µL/min/mg
